Tested on: T47D cells
Assay: Cellular growth inhibition assay for T47D cells, CellTiter-Glo
Assay type: cell-based, human
Conditions: 72 hours treatment, CellTiter-Glo 2.0 cell viability
Experimental: T47D cells were purchased from American Type Cell Culture (ATCC Cat #HTB-133) and then seeded on poly-D-lysine coated, black clear-bottom 384-well plates at 3000/well in 25 μL Dulbecco's Modified Eagle Medium (DMEM) supplemented with 10% w/w Fetal bovine serum (FBS), 0.2 units/mL recombinant human insulin (Gibco Cat #12585014), and 1% w/w Pen-Strep. Pen-Strep is a commercially available mixture of penicillin G and streptomycin, which is used in mammalian cell culture media to prevent bacterial contamination. Dulbecco's Modified Eagle Medium (DMEM) supplemented with 10% w/w fetal bovine serum (FBS), 0.2 units/mL recombinant human insulin, and 1% w/w Pen-Strep is herein referred to as Treatment Medium. Following seeding of cells in the plates, the plates were spun at 300×g for 30 seconds, then equilibrated to room temperature for 30 minutes, and then deposited in a humidified tissue culture incubator maintained at 37° C. with 5% CO2.
At 24 hours after seeding of the cells, dilutions of test compound were prepared in DMSO and dissolved in Treatment Medium, to achieve a final DMSO concentration of 0.5% w/w, thereby providing the Test Compound Solution. A 25 μL aliquot of the Test Compound Solution was added to cells in the well plates. An equal volume of a solution containing DMSO and Treatment Medium was used as a negative control. Following treatment of cells with Test Compound Solution or said equal volume of a solution containing DMSO and Treatment Medium, the plates were spun at 300×g for 30 seconds, and then left in an incubator for 72 hours.
At the end of the treatment duration, cell viability was quantified with CellTiter-Glo 2.0 reagent (Promega Cat #G9243). For this purpose, plates were equilibrated to room temperature for 30 minutes, and then 25 μL of CellTiter-Glo 2.0 reagent was added to cells in the plate wells. Plates were then agitated on a shaker for two minutes at 500 rpm and subsequently incubated at room temperature for 10 minutes. Following incubation, the plates were spun at 3000×g for 30 seconds, then sealed with an optical adhesive cover, and luminescence readings were measured with an EnVision Plate Reader (Perkin Elmer).
Data was normalized using zero luminescence for baseline. A four-parameter non-linear regression curve fit was applied to dose-response data in GraphPad Prism data analysis software to determine the half-maximal growth inhibitory concentration (GI50) for each test compound.

Cc1sc2c(c1C)C(c1ccc([C@@H]3C[C@H]3C3CC4(CCN(c5cnc(C(=O)N[C@H]6C(C)(C)[C@H](Oc7ccc(C#N)c(Cl)c7)C6(C)C)cn5)CC4)C3)cc1)=N[C@@H](Cc1ncco1)c1nnc(C)n1-2 [Compound I-519]
GI50: > 3000 nM

Cc1sc2c(c1C)C(c1ccc(CC3CC4(CCN(c5cnc(C(=O)N[C@H]6C(C)(C)[C@H](Oc7ccc(C#N)c(Cl)c7)C6(C)C)cn5)CC4)C3)cc1)=NC1(CC1)c1nnc(C)n1-2 [Compound I-520]
GI50 (Homo sapiens, T47D, 72 h): < 500 nM

Cc1sc2c(c1C)C(c1ccc(OC3CC4(C3)CC3(CCN(c5cnc(C(=O)N[C@H]6C(C)(C)[C@H](Oc7ccc(C#N)c(Cl)c7)C6(C)C)cn5)CC3)C4)cc1)=NC1(CC1)c1nnc(C)n1-2 [Compound I-521]
GI50 (Homo sapiens, T47D, 72 h): > 3000 nM

Cc1sc2c(c1C)C(c1ccc(CC3CC4(CCN(c5ccc(C(=O)N[C@H]6C(C)(C)[C@H](Oc7ccc(C#N)c(Cl)c7)C6(C)C)nc5)CC4)C3)cc1)=NC1(CC1)c1nnc(C)n1-2 [Compound I-522]
GI50 (Homo sapiens, T47D, 72 h): 1500 to 3000 nM

Cc1sc2c(c1C)C(c1ccc(N3CC(CC4CCN(c5ccc(C(=O)N[C@H]6C(C)(C)[C@H](Oc7ccc(C#N)c(Cl)c7)C6(C)C)cn5)CC4)C3)cc1)=NC1(CC1)c1nnc(C)n1-2 [Compound I-523]
GI50 (Homo sapiens, T47D, 72 h): 1500 to 3000 nM

Cc1sc2c(c1C)C(c1ccc(N3CC(CC4CCN(c5cnc(C(=O)N[C@H]6C(C)(C)[C@H](Oc7ccc(C#N)c(Cl)c7)C6(C)C)cn5)CC4)C3)cc1)=NC1(CC1)c1nnc(C)n1-2 [Compound I-526]
GI50 (Homo sapiens, T47D, 72 h): > 3000 nM

Cc1sc2c(c1C)C(c1ccc(N3CC(CC4CN(c5cnc(C(=O)N[C@H]6C(C)(C)[C@H](Oc7ccc(C#N)c(Cl)c7)C6(C)C)cn5)C4)C3)cc1)=NC1(CC1)c1nnc(C)n1-2 [Compound I-527]
GI50 (Homo sapiens, T47D, 72 h): > 3000 nM

Cc1sc2c(c1C)C(c1ccc(N3CC(C4CCN(c5cnc(C(=O)N[C@H]6C(C)(C)[C@H](Oc7ccc(C#N)c(Cl)c7)C6(C)C)cn5)CC4)C3)cc1)=NC1(CC1)c1nnc(C)n1-2 [Compound I-528]
GI50 (Homo sapiens, T47D, 72 h): > 3000 nM

Cc1sc2c(c1C)C(c1ccc(N3CC(CC4CCN(c5ccc(C(=O)N[C@H]6C(C)(C)[C@H](Oc7ccc(C#N)c(Cl)c7)C6(C)C)nc5)CC4)C3)cc1)=NC1(CC1)c1nnc(C)n1-2 [Compound I-529]
GI50 (Homo sapiens, T47D, 72 h): > 3000 nM

Cc1sc2c(c1C)C(c1ccc(OC3CC4(C3)CC3(CCN(c5ccc(C(=O)N[C@H]6C(C)(C)[C@H](Oc7ccc(C#N)c(Cl)c7)C6(C)C)nc5)CC3)C4)cc1)=NC1(CC1)c1nnc(C)n1-2 [Compound I-530]
GI50 (Homo sapiens, T47D, 72 h): > 3000 nM

Cc1sc2c(c1C)C(c1ccc(N3CC(CC4CN(c5ccc(C(=O)N[C@H]6C(C)(C)[C@H](Oc7ccc(C#N)c(Cl)c7)C6(C)C)nc5)C4)C3)cc1)=NC1(CC1)c1nnc(C)n1-2 [Compound I-531]
GI50 (Homo sapiens, T47D, 72 h): > 3000 nM

Cc1sc2c(c1C)C(c1ccc(N3CC(CC4CN(c5ccc(C(=O)N[C@H]6C(C)(C)[C@H](Oc7ccc(C#N)c(Cl)c7)C6(C)C)cn5)C4)C3)cc1)=NC1(CC1)c1nnc(C)n1-2 [Compound I-532]
GI50 (Homo sapiens, T47D, 72 h): > 3000 nM

Cc1sc2c(c1C)C(c1ccc(N3CC(C4CCN(c5ccc(C(=O)N[C@H]6C(C)(C)[C@H](Oc7ccc(C#N)c(Cl)c7)C6(C)C)nc5)CC4)C3)cc1)=NC1(CC1)c1nnc(C)n1-2 [Compound I-533]
GI50 (Homo sapiens, T47D, 72 h): 1500 to 3000 nM

Cc1sc2c(c1C)C(c1ccc(N3CC(C4CCN(c5ccc(C(=O)N[C@H]6C(C)(C)[C@H](Oc7ccc(C#N)c(Cl)c7)C6(C)C)cn5)CC4)C3)cc1)=NC1(CC1)c1nnc(C)n1-2 [Compound I-534]
GI50 (Homo sapiens, T47D, 72 h): > 3000 nM

Cc1sc2c(c1C)C(c1ccc(C3CC3C3CC4(CCN(c5cnc(C(=O)N[C@H]6C(C)(C)[C@H](Oc7ccc(C#N)c(Cl)c7)C6(C)C)cn5)CC4)C3)cc1)=N[C@@H](C)c1nnc(C)n1-2 (some centres unmarked) [Compound I-535]
GI50 (Homo sapiens, T47D, 72 h): > 3000 nM

Cc1sc2c(c1C)C(c1ccc(C3CC3C3CC4(CCN(c5cnc(C(=O)N[C@H]6C(C)(C)[C@H](Oc7ccc(C#N)c(Cl)c7)C6(C)C)cn5)CC4)C3)cc1)=N[C@@H](C)c1nnc(C)n1-2 (some centres unmarked) [Compound I-536]
GI50: > 3000 nM

Cc1sc2c(c1C)C(c1ccc(C3CC3C3CC4(CCN(c5ncc(C(=O)N[C@H]6C(C)(C)[C@H](Oc7ccc(C#N)c(Cl)c7)C6(C)C)cn5)CC4)C3)cc1)=N[C@@H](C)c1nnc(C)n1-2 (some centres unmarked) [Compound I-537]
GI50 (Homo sapiens, T47D, 72 h): > 3000 nM

Cc1sc2c(c1C)C(c1ccc(C3CC3C3CC4(CCN(c5cnc(C(=O)N[C@H]6C(C)(C)[C@H](Oc7ccc(C#N)c(Cl)c7)C6(C)C)cn5)CC4)C3)cc1)=NC(Cc1ncco1)c1nnc(C)n1-2 (some centres unmarked) [Compound I-538]
GI50: > 3000 nM

Cc1sc2c(c1C)C(c1ccc(C3CC3C3CC4(CCN(c5cnc(C(=O)N[C@H]6C(C)(C)[C@H](Oc7ccc(C#N)c(Cl)c7)C6(C)C)cn5)CC4)C3)cc1)=NC(Cc1ncco1)c1nnc(C)n1-2 (some centres unmarked) [Compound I-539]
GI50: > 3000 nM

Cc1sc2c(c1C)C(c1ccc(C3CC3C3CC4(CCN(c5cnc(C(=O)N[C@H]6C(C)(C)[C@H](Oc7ccc(C#N)c(Cl)c7)C6(C)C)cn5)CC4)C3)cc1)=NC(Cc1ncco1)c1nnc(C)n1-2 (some centres unmarked) [Compound I-540]
GI50: < 500 nM

Cc1sc2c(c1C)C(c1ccc(C3CC3C3CC4(CCN(c5cnc(C(=O)N[C@H]6C(C)(C)[C@H](Oc7ccc(C#N)c(Cl)c7)C6(C)C)cn5)CC4)C3)cc1)=NC(Cc1ncco1)c1nnc(C)n1-2 (some centres unmarked) [Compound I-541]
GI50: < 500 nM

Cc1sc2c(c1C)C(c1ccc(OC3(C)CC4(CCN(c5ncc(C(=O)N[C@H]6C(C)(C)[C@H](Oc7ccc(C#N)c(Cl)c7)C6(C)C)cn5)CC4)C3)cc1)=N[C@@H](Cc1ncco1)c1nnc(C)n1-2 [Compound I-542]
GI50 (Homo sapiens, T47D, 72 h): > 3000 nM

Cc1sc2c(c1C)C(c1ccc(N3CC(C4CCC(Cc5ncc(C(=O)N[C@H]6C(C)(C)[C@H](Oc7ccc(C#N)c(Cl)c7)C6(C)C)cn5)CC4)C3)cc1)=N[C@@H](Cc1ncco1)c1nnc(C)n1-2 (some centres unmarked) [Compound I-543]
GI50: > 3000 nM

Cc1sc2c(c1C)C(c1ccc(N3CC(C4CCC(Cc5ncc(C(=O)N[C@H]6C(C)(C)[C@H](Oc7ccc(C#N)c(Cl)c7)C6(C)C)cn5)CC4)C3)cc1)=N[C@@H](Cc1ncco1)c1nnc(C)n1-2 (some centres unmarked) [Compound I-544]
GI50: 500 to 1500 nM

Cc1sc2c(c1C)C(c1ccc(ON3CC4(C3)CC3(CCN(c5cnc(C(=O)N[C@H]6C(C)(C)[C@H](Oc7ccc(C#N)c(Cl)c7)C6(C)C)cn5)CC3)C4)cc1)=N[C@@H](Cc1ncco1)c1nnc(C)n1-2 [Compound I-545]
GI50 (Homo sapiens, T47D, 72 h): 500 to 1500 nM

Cc1sc2c(c1C)C(c1ccc(OC3CC4(C3)CC3(CCN(c5ccc(C(=O)N[C@H]6C(C)(C)[C@H](Oc7ccc(C#N)c(Cl)c7)C6(C)C)nc5)CC3)C4)cc1)=N[C@@H](Cc1ncco1)c1nnc(C)n1-2 [Compound I-546]
GI50 (Homo sapiens, T47D, 72 h): > 3000 nM

Cc1sc2c(c1C)C(c1ccc(OC3CC4(C3)CC3(CCN(c5ccc(C(=O)N[C@H]6C(C)(C)[C@H](Oc7ccc(C#N)c(Cl)c7)C6(C)C)nc5)CC3)C4)cc1)=N[C@@H](C)c1nnc(C)n1-2 [Compound I-549]
GI50 (Homo sapiens, T47D, 72 h): > 3000 nM

Cc1sc2c(c1C)C(c1ccc(N3CC(C4CCN(c5ccc(C(=O)N[C@H]6C(C)(C)[C@H](Oc7ccc(C#N)c(Cl)c7)C6(C)C)cn5)CC4)C3)cc1)=N[C@@H](C)c1nnc(C)n1-2 [Compound I-551]
GI50 (Homo sapiens, T47D, 72 h): < 500 nM

Cc1sc2c(c1C)C(c1ccc(N3CC(C4CCN(c5ccc(C(=O)N[C@H]6C(C)(C)[C@H](Oc7ccc(C#N)c(Cl)c7)C6(C)C)nc5)CC4)C3)cc1)=N[C@@H](C)c1nnc(C)n1-2 [Compound I-552]
GI50 (Homo sapiens, T47D, 72 h): 1500 to 3000 nM

Cc1sc2c(c1C)C(c1ccc(CC3CC4(CCN(c5ccc(C(=O)N[C@H]6C(C)(C)[C@H](Oc7ccc(C#N)c(Cl)c7)C6(C)C)nc5)CC4)C3)cc1)=N[C@@H](Cc1ncco1)c1nnc(C)n1-2 [Compound I-553]
GI50 (Homo sapiens, T47D, 72 h): < 500 nM

Cc1sc2c(c1C)C(c1ccc(CC3CCN(c4ncc(C(=O)N[C@H]5C(C)(C)[C@H](Oc6ccc(C#N)c(Cl)c6)C5(C)C)cn4)CC3)cc1)=N[C@@H](Cc1ncco1)c1nnc(C)n1-2 [Compound I-554]
GI50 (Homo sapiens, T47D, 72 h): < 500 nM

Cc1sc2c(c1C)C(c1ccc(C3CC3C3CC4(CCN(c5ncc(C(=O)N[C@H]6C(C)(C)[C@H](Oc7ccc(C#N)c(Cl)c7)C6(C)C)cn5)CC4)C3)cc1)=N[C@@H](C)c1nnc(C)n1-2 (some centres unmarked) [Compound I-556]
GI50: > 3000 nM

Cc1sc2c(c1C)C(c1ccc(N3CC(C4CCN(c5cnc(C(=O)N[C@H]6C(C)(C)[C@H](Oc7ccc(C#N)c(Cl)c7)C6(C)C)cn5)CC4)C3)cc1)=N[C@@H](Cc1ncco1)c1nnc(C)n1-2 [Compound I-558]
GI50 (Homo sapiens, T47D, 72 h): < 500 nM

Cc1sc2c(c1C)C(c1ccc(C#CC3CC(Cc4ncc(C(=O)N[C@H]5C(C)(C)[C@H](Oc6ccc(C#N)c(Cl)c6)C5(C)C)cn4)C3)cc1)=NC(Cc1ncco1)c1nnc(C)n1-2 (some centres unmarked) [Compound I-559]
GI50: 500 to 1500 nM

Cc1sc2c(c1C)C(c1ccc(C#CC3CC(Cc4ncc(C(=O)N[C@H]5C(C)(C)[C@H](Oc6ccc(C#N)c(Cl)c6)C5(C)C)cn4)C3)cc1)=NC(Cc1ncco1)c1nnc(C)n1-2 (some centres unmarked) [Compound I-560]
GI50 (Homo sapiens, T47D, 72 h): 500 to 1500 nM

— patent US20260062422A1 (Halda Therapeutics OpCo, Inc., priority 2022, published 2026)
